Experimental data taken from US10787430B2, “Hemoglobin modifier compounds and uses thereof” (FronThera U.S. Pharmaceuticals LLC, priority 2016, dated 2020).

What was measured:
[1] = target: T1, hemoglobin (normal human adult blood) (Homo sapiens, UniProt P68871+P69905); experiment: Time-dependent oxygen equilibrium curve (OEC) studies in normal whole blood; type: cell-based; conditions: 2 mM compound, 2% DMSO, normal human blood 20% hematocrit, 37° C., 1 h
T1 construct: Normal whole blood was collected from adult healthy donors; from tissue; host or cells: normal human whole blood (red blood cells), adult healthy donors
T1 sequence (P69905 2-142 limits assumed): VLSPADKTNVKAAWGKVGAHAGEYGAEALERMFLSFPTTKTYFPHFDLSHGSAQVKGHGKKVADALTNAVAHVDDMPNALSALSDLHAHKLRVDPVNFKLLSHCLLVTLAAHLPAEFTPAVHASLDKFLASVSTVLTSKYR
T1 sequence (P68871 2-147 limits assumed): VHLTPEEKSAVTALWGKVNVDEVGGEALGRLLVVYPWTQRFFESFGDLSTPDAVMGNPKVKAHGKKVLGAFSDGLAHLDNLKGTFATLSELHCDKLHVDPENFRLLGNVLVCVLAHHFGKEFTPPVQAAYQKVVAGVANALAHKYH
Procedure: (§1) Materials: Normal whole blood was collected from adult healthy donors at the Virginia Commonwealth University after informed consent. The use of these human samples is in accordance with regulations of the IRB for Protection of Human Subjects. Compounds (50 mM-100 mM concentration in DMSO) were stored at 15° C. or room temperature until use.
The time-dependent OEC studies were conducted on normal human adult blood samples with hematocrit value of 20% in the absence or presence of effectors solubilized in DMSO at final drug and DMSO concentrations of 2 mM and 2%, respectively. […] The mixture was further incubated at 37° C. with shaking. […] After equilibration, the sample was removed by syringe and aspirated into a ABL 700 series table top automated blood gas analyzer (Radiometer America, Inc., Westlake, Ohio) to determine values of total hemoglobin (tHb), methemoglobin (metHb), hematocrit (Hct), pH, partial pressure of oxygen (pO2), and Hb oxygen saturation values (sO2). The measured values of sO2 and pO2 at each partial pressure of oxygen are then subjected to a non-linear regression analysis using the program Scientist (Micromath, Salt Lake City, Utah) with the following equation: […]
This equation was used to calculate P50 and Hill coefficient (N) values. Corresponding control experiments without the test compound (P50control) but containing DMSO were also performed. GBT440 was used as a positive control.

[2] = target: T2, hemoglobin (20% hct blood) (Homo sapiens, UniProt P68871+P69905); experiment: Dose-dependent whole blood OEC studies; type: cell-based; conditions: 37° C., 1 hr; for delta p50 0.2 mM: 0.2 mM compound; for delta p50 0.5 mM: 0.5 mM compound
T2 construct: Normal whole blood was collected from adult healthy donors; from tissue; host or cells: normal human whole blood (red blood cells), adult healthy donors
T2 sequence (P69905 2-142 limits assumed): as the sequence (P69905 2-142 limits assumed) above
T2 sequence (P68871 2-147 limits assumed): as the sequence (P68871 2-147 limits assumed) above
Procedure: as §1
To 2 ml 20% hct blood, 0.2 or 0.5 or 1 mM compound was added and kept shaking at 37° C. for 1 hr. OEC analysis was performed as described above to determine partial pressure of oxygen (pO2) and Hb oxygen saturation values (sO2). A control without compound but containing equivalent amount of DMSO was performed (1%). GBT440 was used as a positive control. Table 2 below lists the delta p50% values.

CC(C)n1nccc1-c1ncccc1COc1cc2c(cc1C=O)OCC2 [Example 3, 5-((2-(1-isopropyl-1H-pyrazol-5-yl)pyridin-3-yl)methoxy)-2,3-dihydrobenzofuran-6-carbaldehyde]
delta p50 [1]: −62%

CC(C)n1nccc1-c1nn(C)c(=O)cc1COc1cccc(O)c1C=O [Example 59, 2-hydroxy-6-((3-(1-isopropyl-1H-pyrazol-5-yl)-1-methyl-6-oxo-1,6-dihydropyridazin-4-yl)methoxy)benzaldehyde]
delta p50 [1]: −54%

CC(C)n1nccc1-c1ncccc1COc1ccc2c(c1C=O)CCS2(=O)=O [Example 21, 5-((2-(1-isopropyl-1H-pyrazol-5-yl)pyridin-3-yl)methoxy)-2,3-dihydrobenzo[b]thiophene-4-carbaldehyde 1,1-dioxide]
delta p50 [1]: −72%

CC(C)n1nccc1-c1ncccc1COc1ccn2nnnc2c1C=O [Example 13, 7-((2-(1-isopropyl-1H-pyrazol-5-yl)pyridin-3-yl)methoxy)tetrazolo[1,5-a]pyridine-8-carbaldehyde]
delta p50 [1]: −9%

CC(C)n1nccc1-c1nccc2c1[C@@H](Oc1cccc(O)c1C=O)CO2 [Example 62a, (R)-2-hydroxy-6-((4-(1-isopropyl-1H-pyrazol-5-yl)-2,3-dihydrofuro[3,2-c]pyridin-3-yl)oxy)benzaldehyde]
delta p50 [1]: −63%

CC(C)n1nccc1-c1ncccc1COc1ccc2ncoc2c1C=O [Example 15, 6-((2-(1-isopropyl-1H-pyrazol-5-yl)pyridin-3-yl)methoxy)benzo[d]oxazole-7-carbaldehyde]
delta p50 [1]: −81%

CC(C)n1nccc1-c1cn(C)c(=O)cc1COc1cccc(O)c1C=O [Example 60, 2-hydroxy-6-((5-(1-isopropyl-1H-pyrazol-5-yl)-1-methyl-2-oxo-1,2-dihydropyridin-4-yl)methoxy)benzaldehyde]
delta p50 [1]: −69%

CC(C)n1nccc1-c1ncccc1COc1ccc2c(c1C=O)OCCO2 [Example 7, 6-((2-(1-isopropyl-1H-pyrazol-5-yl)pyridin-3-yl)methoxy)-2,3-dihydrobenzo[b][1,4]dioxine-5-carbaldehyde]
delta p50 [1]: −59%

[2H]C(=O)c1c(O)cccc1OCc1cccnc1-c1ccnn1C(C)C [Example 24]
delta p50 [1]: −47%

CC(C)n1nccc1-c1nccc2c1[C@H](Oc1cccc(O)c1C=O)CO2 [Example 62b, (S)-2-hydroxy-6-((4-(1-isopropyl-1H-pyrazol-5-yl)-2,3-dihydrofuro[3,2-c]pyridin-3-yl)oxy)benzaldehyde]
delta p50 [1]: −64%

CC(C)n1nccc1-c1ncccc1COc1ccc2sccc2c1C=O [Example 20, 5-((2-(1-isopropyl-1H-pyrazol-5-yl)pyridin-3-yl)methoxy)benzo[b]thiophene-4-carbaldehyde]
delta p50 [1]: −74%

[2H]C([2H])([2H])C(n1nccc1-c1ncccc1COc1cccc(O)c1C=O)C([2H])([2H])[2H] [Example 30, 2-hydroxy-6-((2-(1-(propan-2-yl-1,1,1,3,3,3-d6)-1H-pyrazol-5-yl)pyridin-3-yl)methoxy)benzaldehyde]
delta p50 [1]: −85%

CC(C)n1nccc1-c1ncccc1COc1ccc2ocnc2c1C=O [Example 14, 5-((2-(1-isopropyl-1H-pyrazol-5-yl)pyridin-3-yl)methoxy)benzo[d]oxazole-4-carbaldehyde]
delta p50 [1]: −63%

CC(C)n1nccc1-c1ncccc1COc1ccc2c(c1C=O)C(O)C(F)(F)O2 (centres unmarked) [Example 9, 2,2-difluoro-3-hydroxy-5-((2-(1-isopropyl-1H-pyrazol-5-yl)pyridin-3-yl)methoxy)-2,3-dihydrobenzofuran-4-carbaldehyde]
delta p50 [1]: −64%

CC(C)n1nccc1-c1ncccc1CSc1cccc(O)c1C=O [Example 23, 2-hydroxy-6-(((2-(1-isopropyl-1H-pyrazol-5-yl)pyridin-3-yl)methyl)thio)benzaldehyde]
delta p50 [1]: −62%

CC(C)n1nccc1-c1ncccc1COc1ccc2c(c1C=O)OCO2 [Example 6, 5-((2-(1-isopropyl-1H-pyrazol-5-yl)pyridin-3-yl)methoxy)benzo[d][1,3]dioxole-4-carbaldehyde]
delta p50 [1]: −66%

CC(C)n1nccc1-c1nccc2c1C(Oc1cccc(O)c1C=O)CO2 (centres unmarked) [Example 61g, 2-hydroxy-6-((4-(1-isopropyl-1H-pyrazol-5-yl)-2,3-dihydrofuro[3,2-c]pyridin-3-yl)oxy)benzaldehyde]
delta p50 [1]: −59%

CC(C)n1nccc1-c1ncn(C)c1COc1cccc(O)c1C=O [Example 69, 2-hydroxy-6-((4-(1-isopropyl-1H-pyrazol-5-yl)-1-methyl-1H-imidazol-5-yl)methoxy)benzaldehyde]
delta p50 0.2 mM [2]: −21.40% | delta p50 0.5 mM [2]: −41.80%

[2H]C([2H])(Oc1cccc(O)c1C=O)c1ncccc1-c1ccnn1C(C)C [Example 46, 2-hydroxy-6-((3-(1-isopropyl-1H-pyrazol-5-yl)pyridin-2-yl)methoxy-d2)benzaldehyde]
delta p50 0.2 mM [2]: −12.80% | delta p50 0.5 mM [2]: −37.90%

[2H]C(C)(C)n1nccc1-c1ncncc1COc1cccc(O)c1C=O [Example 50, 2-hydroxy-6-((4-(1-(propan-2-yl-2-d)-1H-pyrazol-5-yl)pyrimidin-5-yl)methoxy)benzaldehyde]
delta p50 0.2 mM [2]: −16.10% | delta p50 0.5 mM [2]: −38.4.%

CC(C)n1nccc1-c1ncccc1COc1ccc2snnc2c1C=O [Example 17, 5-((2-(1-isopropyl-1H-pyrazol-5-yl)pyridin-3-yl)methoxy)benzo[d][1,2,3]thiadiazole-4-carbaldehyde]
delta p50 0.2 mM [2]: −12% | delta p50 0.5 mM [2]: −30%

CC(C)n1nccc1-c1ncoc1COc1cccc(O)c1C=O [Example 67, 2-hydroxy-6-((4-(1-isopropyl-1H-pyrazol-5-yl)oxazol-5-yl)methoxy)benzaldehyde]
delta p50 0.2 mM [2]: −6.80% | delta p50 0.5 mM [2]: −25.30%

CC(C)n1nccc1-c1nccc(F)c1COc1cccc(O)c1C=O [Example 74, 2-((4-fluoro-2-(1-isopropyl-1H-pyrazol-5-yl)pyridin-3-yl)methoxy)-6-hydroxybenzaldehyde]
delta p50 0.2 mM [2]: −15.8% | delta p50 0.5 mM [2]: −48.4%

CC(C)n1nccc1-c1ncncc1COc1ccc2ncoc2c1C=O [Example 54, 6-((4-(1-isopropyl-1H-pyrazol-5-yl)pyrimidin-5-yl)methoxy)benzo[d]oxazole-7-carbaldehyde]
delta p50 0.2 mM [2]: −12.00% | delta p50 0.5 mM [2]: −35.00%

CC(C)n1ncc(F)c1-c1ncccc1COc1ccc2ncoc2c1C=O [Example 22, 6-((2-(4-fluoro-1-isopropyl-1H-pyrazol-5-yl)pyridin-3-yl)methoxy)benzo[d]oxazole-7-carbaldehyde]
delta p50 0.2 mM [2]: −12.90% | delta p50 0.5 mM [2]: −35.50%

[2H]C([2H])(Oc1cc(F)cc(O)c1C=O)c1cccnc1-c1c(F)cnn1C(C)C [Example 26, 4-fluoro-2-((2-(4-fluoro-1-isopropyl-1H-pyrazol-5-yl)pyridin-3-yl)methoxy-d2)-6-hydroxybenzaldehyde]
delta p50 0.2 mM [2]: −11.10% | delta p50 0.5 mM [2]: −26.10%

[2H]C([2H])(Oc1cc(F)cc(O)c1C=O)c1ncccc1-c1ccnn1C(C)C [Example 47, 4-fluoro-2-hydroxy-6-((3-(1-isopropyl-1H-pyrazol-5-yl)pyridin-2-yl)methoxy-d2)benzaldehyde]
delta p50 0.2 mM [2]: −15.30% | delta p50 0.5 mM [2]: −40.80%

[2H]C([2H])(Oc1cccc(O)c1C=O)c1nccnc1-n1ccnc1C(C)C [Example 72, 2-hydroxy-6-((3-(2-isopropyl-1H-imidazol-1-yl)pyrazin-2-yl)methoxy-d2)benzaldehyde]
delta p50 0.2 mM [2]: −5.10% | delta p50 0.5 mM [2]: −16.80%

CC(C)n1nccc1-c1ncncc1COc1ccc2cccnc2c1C=O [Example 56, 7-((4-(1-isopropyl-1H-pyrazol-5-yl)pyrimidin-5-yl)methoxy)quinoline-8-carbaldehyde]
delta p50 0.2 mM [2]: −1.60% | delta p50 0.5 mM [2]: −11.30%

CC(C)n1nccc1-c1ncccc1COc1ccc2ncncc2c1C=O [Example 19, 6-((2-(1-isopropyl-1H-pyrazol-5-yl)pyridin-3-yl)methoxy)quinazoline-5-carbaldehyde]
delta p50 0.2 mM [2]: −8.20% | delta p50 0.5 mM [2]: −18.10%

CC(C)n1nccc1-c1cccnc1COc1ccc2ncoc2c1C=O [Example 58, 6-((3-(1-isopropyl-1H-pyrazol-5-yl)pyridin-2-yl)methoxy)benzo[d]oxazole-7-carbaldehyde]
delta p50 0.2 mM [2]: −14.30% | delta p50 0.5 mM [2]: −34.30%

CC(C)n1nccc1-c1ncccc1COc1ccc2sncc2c1C=O [Example 11, 5-((2-(1-isopropyl-1H-pyrazol-5-yl)pyridin-3-yl)methoxy)benzo[d]isothiazole-4-carbaldehyde]
delta p50 0.2 mM [2]: −12.80% | delta p50 0.5 mM [2]: −37.60%
